These results are taken from PMC6801405, “Discovery of 3-Arylquinoxaline Derivatives as Potential Anti-Dengue Virus Agents” (International Journal of Molecular Sciences, 2019).

“Also recorded” adds a separate entry of the source.

One series has as its system Huh-7 cells. Nature of the series: Cytotoxicity assay (XTT method). The series is classed as cell-based, Human. As to the method:
For cytotoxicity tests, run in parallel with antiviral assays, plates at an initial density of 5 × 10^3 cells/well were treated with or without serial dilutions of test compounds. Cell viability was determined after 72 h at 37 °C in a humidified CO2 (5%) atmosphere by the (2,3-bis[2-methyloxy-4-nitro-5-sulfophenyl]-2H-tetrazolium-5-carboxanilide) (XTT) method.
Background: Formazan colour is commonly taken as a measure of viable cells.

For series [1], the system named is DENV. Nature of the series: DENV protein synthesis by Western blotting in Huh-7 cells. The series is classed as cell-based, dengue virus. To be noted: 0.5, 1, 2.5 and 5 μM, three days. Here is the method:
To further confirm the anti-DENV effect of compound 19a, we treated compound 19a at indicated concentrations in Huh-7 cells for three days.
Huh-7 cells were seeded in 24-well plates at a density of 5 × 10^4 cells per well overnight and treated with indicated reagent at proper concentrations for three days. Cells were washed with cold phosphate-buffered saline (PBS) and lysed by radioimmunoprecipitation assay (RIPA) lysis buffer (50 mM Tris-HCl, pH 7.5, 150 mM NaCl, 1% Nonidet P-40, 2 mM ethylenediaminetetraacetic acid (EDTA), 1 mM ethylene glycol bis(2-aminoethyl)tetraacetic acid (EGTA), 1 mM NaVO3, 10 mM NaF, 1 mM dithiothreitol (DTT), 1 mM phenylmethylsulfonyl fluoride (PMSF), 25 μg/mL aprotinin, and 25 μg/mL leupeptin) and stored at −20 °C. The protein concentration was determined by the Bradford method. Then, 10-μg protein samples were separated by 10% SDS-PAGE and transferred onto a polyvinylidene fluoride (PVDF) membrane. The membrane was blocked with 5% non-fat dried milk and incubated with specific antibodies against GAPDH (1:10000, Genetex, Irvine, CA, USA) and COX-2 (1:1000; Cayman Chemical, Ann Arbor, ML, USA). […] The blotting signal was developed using an enhanced chemiluminescence (ECL) detection kit (PerkinElmer, Waltham, MA, USA) and was counted by the software Quantity One (Bio-Rad, Hercules, CA, USA). […]

The test system of the next series is COX-2 expression. Nature of the series: COX-2 protein and mRNA expression in Huh-7 cells (Western blotting, RT-qPCR). The note with it: 0.5 to 5 μM, vs DMSO. The series is classed as cell-based, Human. As to the method:
(§1) In a previous study, Lin et al. reported that induction of COX-2 could suppress DENV replication. To determine whether compound 19a had impact on COX-2 protein and mRNA expression in Huh-7 cells, we treated Huh-7 cells with 0.5 to 5 μM of 19a. […] To characterize whether the 19a-mediated downregulation of COX-2 expression and its catalytic activity was involved in the suppression of DENV replication, we overexpressed exogenous COX-2 to evaluate the inhibitory activity of 19a on DENV replication. […] Consistently, the exogenous expression of COX-2 attenuated the inhibitory effect of 19a on the non-structural 2B (NS2B) protein levels, as analyzed by Western blotting.
Huh-7 cells were seeded in 24-well plates at a density of 5 × 10^4 cells per well overnight and treated with indicated reagent at proper concentrations for three days. […] The protein concentration was determined by the Bradford method. […] The blotting signal was developed using an enhanced chemiluminescence (ECL) detection kit (PerkinElmer, Waltham, MA, USA) and was counted by the software Quantity One (Bio-Rad, Hercules, CA, USA). […]
(§2) Figure 4 Inhibitory effect of 19a on DENV-induced cyclooxygenase-2 (COX-2) expression in Huh-7 cells. […] The results are expressed as the means ± standard deviations (SD) of triplicate experiments.
(In general: Immunoblotting shows a protein as a band on a membrane.)

The test system of the next series is COX-2 promoter. Nature of the series: COX-2 promoter-based reporter assay (pCOX-2-Luc) in DENV-infected Huh-7 cells. The series is classed as cell-based, Human. To be noted: increasing concentrations, three days. As to the method: We also used a COX-2 promoter-based reporter assay to evaluate the inhibitory effect of 19a on COX-2 at the transcriptional level. The pCOX-2-Luc, a plasmid encoding firefly luciferase under the control of the COX-2 promoter, was transfected into Huh-7 cells or DENV-infected Huh-7 cells and, then, these plasmid-transfected cells were incubated with 19a at increasing concentrations for three days.
Huh-7-DV-Fluc cells were seeded in 24-well plates at a density of 2 × 10^4 cells per well, and treated with the 3-arylquinoxaline compounds at two concentrations (1 and 10 μM) or 0.1% DMSO as control. After three days of incubation, the luciferase activity assay was performed using the Bright-Glo Luciferase assay system (Promega, Madison, WI, USA) according to the manufacturer’s instructions. […] After three days, protein and RNA levels were analyzed by Western blotting with a specific antibody as previously described respectively.
as §2
(In general: A reporter such as luciferase makes a cellular process visible.)

Series [2] has as its system DENV. Put plainly: Exogenous COX-2 (pCMV-COX-2-Myc) overexpression rescue of DENV replication in Huh-7 cells. The series is classed as cell-based, dengue virus. The note with it: 1 μM; pCMV-COX-2-Myc transfected Huh-7 cells. Here is the method:
as §1
Huh-7-DV-Fluc cells were seeded in 24-well plates at a density of 2 × 10^4 cells per well, and treated with the 3-arylquinoxaline compounds at two concentrations (1 and 10 μM) or 0.1% DMSO as control. […] After three days, protein and RNA levels were analyzed by Western blotting with a specific antibody as previously described respectively.
as §2

For the molecule `COc1ccc(-c2nc3ccccc3nc2C(O)c2ccccc2)cc1` (stereo not shown) [Compound 19a, [3-(4-Methoxyphenyl)quinoxalin-2-yl](phenyl)methanol], the “Huh-7 Cell % viability at 200 μM” value in the series on Huh-7 cells (200 μM, 72 h, XTT, mean ± SD) came out at 85.26 ± 5.63%. The cytotoxicity in words result in the series with Huh-7 cells (Huh-7 cells) was “non-cytotoxic; also recorded: no significant cell cytotoxicity”. Besides, in the series on DENV [1], the “DENV protein synthesis (Western blotting)” value is “dose-dependently reduced”. Besides, in the series on COX-2 expression, the “COX-2 mRNA level” value was “could inhibit” and the COX-2 protein level entry is listed as “could inhibit”. Also, the “DENV-elevated COX-2 promoter activity” value in the series on COX-2 promoter is “dose-dependently decreased”. The “viral RNA level reduced by compound upon increasing exogenous COX-2-Myc expression” value with DENV [2] is “gradually rescued”.
